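Cultured in 96-well plates, cells were exposed to test compound for 48 hours across five concentrations. GI50 = concentration required for 50% inhibition of growth.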 Activity calls are given as the source filed them. No stated cut-off is given here; in the data, active = GI50 up to about 1.1 µM and inactive = higher.
Columns and labels:
Assay in all cases: NCI tumour cell line growth inhibition, 48 h
[1] = test system: 786-0
[2] = test system: A498
[3] = test system: A549
[4] = test system: HCT-15
[5] = test system: IGROV-1
[6] = test system: LOX IMVI
[7] = test system: MDA-MB-435
[8] = test system: NCI-H23
[9] = test system: NCI-H460
[10] = test system: NCI-H522
[11] = test system: OVCAR-4
[12] = test system: RPMI-8226
[13] = test system: SF-268
[14] = test system: SK-MEL-28
[15] = test system: SK-OV-3
[16] = test system: SN12C
[17] = test system: SW-620
[18] = test system: UACC-62
[19] = test system: DU-145

| SMILES | GI50 [1] | GI50 [2] | GI50 [3] | GI50 [4] [µM] | GI50 [5] | GI50 [6] | GI50 [7] | GI50 [8] | GI50 [9] | GI50 [10] | GI50 [11] | GI50 [12] | GI50 [13] | GI50 [14] | GI50 [15] | GI50 [16] | GI50 [17] | GI50 [18] | GI50 [19] |
| --- | --- | --- | --- | --- | --- | --- | --- | --- | --- | --- | --- | --- | --- | --- | --- | --- | --- | --- | --- |
| CN(C)C(=S)/N=c1\ssc(=S)n1Cc1cccnc1 | 4.07 µM (inactive) | 10.1 µM (inactive) | 4.93 µM (inactive) | 1.23 | 7.18 µM (inactive) | 4.27 µM (inactive) | 0.277 µM (active) | 2.64 µM (inactive) | 2.81 µM (inactive) | 0.531 µM (active) | 19.3 µM (inactive) | 3.47 µM (inactive) | 15.2 µM (inactive) | 9.4 µM (inactive) | 4.36 µM (inactive) | 5.18 µM (inactive) | 1.26 µM (inactive) | 2.17 µM (inactive) |  |
| O=C(OC1CC(n2cc(F)c(=O)[nH]c2=O)OC1CSC(=O)c1ccccc1)c1ccccc1 (centres undefined) | 32.1 µM (inactive) | 41.6 µM (inactive) | 29.2 µM (inactive) | 34.2 | 56.2 µM (inactive) | 50.9 µM (inactive) |  | 26.4 µM (inactive) | 35.3 µM (inactive) | 19.5 µM (inactive) | 16.6 µM (inactive) | 22.5 µM (inactive) | 25.4 µM (inactive) | 48 µM (inactive) | > 100 µM (inactive) | 28.1 µM (inactive) | 30.8 µM (inactive) | 36.4 µM (inactive) |  |
| c1ccc(CNc2ncnc3nn[nH]c23)cc1 | > 100 µM (inactive) | 34 µM (inactive) | > 100 µM (inactive) | > 100 | > 100 µM (inactive) | > 100 µM (inactive) | > 100 µM (inactive) | > 100 µM (inactive) |  | > 100 µM (inactive) | > 100 µM (inactive) |  |  | > 100 µM (inactive) | > 100 µM (inactive) | > 100 µM (inactive) | > 100 µM (inactive) | > 100 µM (inactive) | > 100 µM (inactive) |
| OC[C@H]1C[C@@H]2Cc3ccccc3N2N1 | > 100 µM (inactive) | > 100 µM (inactive) | > 100 µM (inactive) | > 100 | > 100 µM (inactive) | > 100 µM (inactive) | > 100 µM (inactive) | > 100 µM (inactive) | > 100 µM (inactive) | > 100 µM (inactive) | > 100 µM (inactive) |  | > 100 µM (inactive) | > 100 µM (inactive) | > 100 µM (inactive) | > 100 µM (inactive) | > 100 µM (inactive) | > 100 µM (inactive) | > 100 µM (inactive) |
